Results reported in US5696231A, “N-substituted glycine derivatives as enzyme inhibitors” (Corvas International, Inc., priority 1994, dated 1997).

How the values were obtained:
[1] = system: pooled normal human plasma; test: Prothrombin time (PT) assay in citrated human plasma; assay type: biochemical; conditions: control clotting time 13 seconds, mean of two independent determinations
Description: (§1) FIG. 2 depicts the anticoagulant effect of (D)-camphorsulfonyl aspartyl sarcosine arginine aldehyde measured in citrated human plasma using the activated partial thromboplastin time (APTT) assay, closed circles (1), and prothrombin time (PT) assay, open triangles (D). The control clotting times (0 inhibitor) for the APTT and PT assays in human plasma were 29 seconds and 13 seconds, respectively. The concentration of (D)-camphorsulfonyl aspartyl sarcosine arginine aldehyde which caused a doubling of the control clotting times in the APTT and PT assays were 54 micromolar and 298 micromolar, respectively. The data is the mean of two independent determinations.
(§2) The ex vivo anticoagulant effect of a compound of the present invention, (D)-camphorsulfonyl aspartyl sarcosine arginine aldehyde (Example 56), was determined by measuring the prolongation of the activated partial thromboplastin time (APTT) and prothrombin time (PT) over a broad concentration range of the added inhibitor, using pooled normal human plasma.
(§3) Fresh frozen citrated pooled normal human plasma was obtained from George King Biomedical, Overland Park, Kansa. […]

[2] = system: pooled normal human plasma; test: Activated partial thromboplastin time (APTT) assay in citrated human plasma; assay type: biochemical
Description: as §1, §2, §3

CN(CC(=O)N[C@H](C=O)CCCN=C(N)N)C(=O)[C@H](CC(=O)O)NS(=O)(=O)C[C@]12CC[C@H](CC1=O)C2(C)C [(D)-camphorsulfonyl aspartyl sarcosine arginine aldehyde]
concentration which caused a doubling of the control clotting time in the PT assay [1]: 298 µM
concentration which caused a doubling of the control clotting time in the APTT assay ([2]; citrated human plasma, control clotting time 29 seconds, mean of two independent determinations): 54 µM
prolongation of the APTT ([2]; human plasma, broad concentration range of added inhibitor (FIG. 2)): prolonged the APTT in a dose dependent manner
